In patent US11534449B2, “Tricin derivatives and compositions thereof for cancer treatment” (NEOCAGE SL, priority 2019, dated 2022):
Entries after “also recorded” stand apart in the source; their conditions may differ. One block for each compound: values may come before it.

Key:
dendritic cell = test: Dendritic cell activation; type: cell-based
Source text: (§1) In colorectal carcinoma (CRC) patients, distant metastatic disease is present at initial diagnosis in nearly 25% of patients. The majority of patients with metastatic CRC have an incurable disease; therefore, new therapies are needed to address this cancer. […] ANTARTINA® is an antitumor agent isolated from Deschampsia antarctica Desv. In that study, the aim was to evaluate the antitumor properties of ANTARTINA® in CRC models. Human and murine CRC cell lines were employed to investigate proliferation, apoptosis, and cell cycle effects of ANTARTINA® therapy in vitro. Immune response of ANTARTINA® against cancer cells in the CRC model was also investigated using a cytotoxic T lymphocyte (CTL) assay, analyzing dendritic cell activation and intratumor T cell sub-population, and by tumor re-challenge experiments.

CRC [1] = test: Immunocompetent CRC mouse model; type: in vivo
Source text: as §1

human CRC cell = test: In vitro human CRC cell proliferation; type: cell-based
Source text: as §1

CRC [2] = test: Cytotoxic T lymphocyte (CTL) assay; type: cell-based
Source text: as §1

CT26 cells [3] = test: Murine CRC model (CT26 cells) in BALB/c mice, combination with AdIL-12 gene therapy; type: in vivo, mouse; settings: mice with regression/mice in group; ANTARTINA 50 mg/kg 3 doses per week; AdIL12 10^9 TCID50 intratumorally, one dose at day 15
Source text: Mouse CT26 cells (5×10^5) were subcutaneously inoculated on day 0. On day 7, when tumors reached a diameter of 5-7 mm, animals were divided into 4 groups: saline, ANTARTINA®, AdIL12, and the combination of ANTARTINA® and AdIL-12. Tumor volume is shown in the left panel vs. days after CT26 inoculation. Excised tumors are depicted in the right panel.
Adenovirus IL-12 constructs are as previously reported. (Mazzolini et al., Cancer Gene Therapy, 6(6):514-522, 1999).
This is a murine model of CRC (CT26 cells) established in BALB/c mice. Mouse CT26 cells (5×10^5) were subcutaneously inoculated on day 0. On day 7, when tumors reached a diameter of 5-7 mm, animals were divided into 4 groups: saline, ANTARTINA® 50 mg/kg, 3 doses per week (systemically), AdIL12 (adenovirus encoding murine IL-12, dose: 10^9 TCID50, intratumorally, one dose at day 15 after tumor inoculation), and the combination of ANTARTINA® and AdIL-12. Tumor volume was measured with a caliper 3 times per week. […] Complete tumor regressions: saline […], AdIL-12 1/5, Antartina 2/5, and combined therapy: 4/5. (FIG. 6).

CT26 cells [4] = test: Subcutaneous CRC model, CT26 cells in BALB/c mice; type: in vivo, mouse; settings: 50 mg/kg i.p., 3 times per week over 3 weeks; s.c. CT26 tumors in BALB/c mice; compared with ANTARTINA and tricin
Source text: FIG. 4 depicts cell size (mm^3) in mice of CT26 tumors after CT26 cell line injection into mice. […] The bottom panel provides a summary of all results in one graph.
Mouse CT26 tumor cell line, an undifferentiated murine colorectal carcinoma (CRC) cell line established from N-nitroso-N-methylurethan-induced transplantable tumor in BALB/c (H-2d) mice, BNL cells (an hepatoma cell line) were used in the studies below and can be obtained from the University of Navarra, Spain. Human cell lines were from American Type Culture Collection (ATCC, Manassas, Va., US), including LoVo (ATCC-CCL229), ASG (ATCC-CCRL-79) and lung fibroblast Wi38 (ATCC-CCL75). All lines were tested for mycoplasma and cultured in complete DMEM (GIBCO, Themo Fisher Scientific, mM glutamine, 100 U/mL penicillin, […] streptomycin, and 10% heat inactivated fetal bovine serum (FBS, GIBCO, Thermo Fisher Scientific) and incubated 37° C. in 5% CO2.
Subcutaneous CRC model: Six-to-eight-week-old male BALB/c mice were used. CT26 cells were injected at a dose of 5×10^5 cells subcutaneously (s.c.) into the right flank of BALB/c mice (day 0). Tumors were allowed to reach ^˜90 mm^3 in size before treatment. […] Tumor growth was assessed by caliper measurement. Tumor volume was calculated using the following formula: tumor volume (mm^3)=length×(width) 2/2.

Hepa129 cells = test: Orthotopic hepatocellular carcinoma model associated with fibrosis, Hepa129 cells in C3H/He mice; type: in vivo, mouse; settings: 50 mg/kg, 3 times per week from day 5; quantified fifteen days after tumor implantation; vs saline
Description: On day 28, mice were anesthetized and orthotopic tumors were established by sub-capsular inoculation of 1.25×10^5 Hepa129 cells into the left liver lobe by laparotomy (day 0). Five days after tumor implantation, mice were distributed in groups (n=6-8/group) and received: i) saline (control, FIG. 5A, left panel); ii) acetylated ANTARTINA® (50 mg/kg, 3 times per week, FIG. 5A, right panel). Fifteen days after tumor implantation, mice were sacrificed and tumor volume was quantified, as depicted in FIG. 5B (control, left panel; acetylated ANTARTINA®, right panel).
Experimental model of HCC associated with fibrosis: C3H/He mice were treated intraperitoneally (i.p) with 200 mg/kg of thioacetamide (TAA) (Sigma-Aldrich, St. Louis, USA) 3 times a week for 4 weeks. On day 28, mice were anesthetized and orthotopic tumors were established by sub-capsular inoculation of 1.25×10^5 Hepa129 cells into the left liver lobe by laparotomy (day 0). Five days after tumor implantation, mice were distributed in groups (n=6-8/group) and received: i) saline (control); ii) acetylated ANTARTINA® (50 mg/kg, 3 times per week). (See, FIG. 5A). Fifteen days after tumor implantation, mice were sacrificed and tumor volume was quantified. (See, FIG. 5B).

- melting point: 260.2 to 263.3 °C
SMILES: COc1cc(-c2cc(=O)c3c(O)cc(O[C@@H]4O[C@H](CO)[C@H](O)[C@H](O)[C@H]4O)cc3o2)cc(OC)c1O (stereo in doubt)

- melting point: 275.4 to 279.2 °C
SMILES: COc1cc(-c2cc(=O)c3c(O)cc(O[C@@H]4O[C@H](CO)[C@@H](O[C@@H]5O[C@H](CO)[C@H](O)[C@H](O)[C@H]5O)[C@H](O)[C@H]4O)cc3o2)cc(OC)c1O (stereo in doubt)

- melting point: 243.2 to 246.5 °C
SMILES: COc1cc(-c2cc(=O)c3c(O)cc(O[C@@H]4O[C@H](CO)[C@@H](O[C@@H]5O[C@H](CO)[C@@H](O)[C@H](O)[C@H]5O)[C@H](O)[C@H]4O)cc3o2)cc(OC)c1O (stereo in doubt)

- melting point: 117.2 to 121.8 °C
SMILES: COc1cc(-c2cc(=O)c3c(O)cc(O[C@@H]4O[C@H](COC(C)=O)[C@H](OC(C)=O)[C@H](OC(C)=O)[C@H]4OC(C)=O)cc3o2)cc(OC)c1O (stereo in doubt)

SMILES: COc1cc(-c2cc(=O)c3c(O)cc(O[C@@H]4O[C@H](CO)[C@@H](O)[C@H](O)[C@H]4O)cc3o2)cc(OC)c1O [ANTARTINA®, tricin 7-O-β-D-glucopyranoside]
- dendritic cell activation (dendritic cell): stimulated dendritic cell activation
- toxic effects (CRC [1]; at the doses employed): No toxic effects were observed
- animal survival rate (CRC [1]; mouse, in vivo): increased
- complete tumor regressions (CRC [1]; mouse, in vivo): > 30 % of mice
- tumor growth and liver metastases (CRC [1]; mouse, in vivo): potently inhibited
- tumor immunogenicity (CRC [1]; mouse, in vivo): increased tumor immunogenicity
- antitumor immunity (tumor re-challenge) (CRC [1]; tumor re-challenge experiments): long lasting antitumor immunity
- in vitro human CRC cell proliferation (human CRC cell): inhibits
- specific cytotoxic T cell response against CRC (CRC [2]): induced a potent specific cytotoxic T cell response
- complete tumor regressions (CT26 cells [3]): 2/5

SMILES: COc1cc(-c2cc(=O)c3c(OC(C)=O)cc(O[C@@H]4O[C@H](COC(C)=O)[C@@H](OC(C)=O)[C@H](OC(C)=O)[C@H]4OC(C)=O)cc3o2)cc(OC)c1OC(C)=O [acetylated ANTARTINA®, Tricin 7-O-β-D-glucopyranoside, Per Acetylated]
- melting point: 239.1 to 241.8 °C
- tumor size (antitumoral effect) (CT26 cells [4]): superior antitumoral effect in comparison with native ANTARTINA®; also recorded: clearly and markedly reduced tumor size at a higher rate than observed for any of the other tested agents
- tumor volume (Hepa129 cells): markedly reduced the tumor volume
